Columns and labels:
Assay type in all cases: biochemical
TEC = target: T1, TEC (Homo sapiens, UniProt P42680); experiment: Kinase activity inhibition assay (HTRF TK Kit), selectivity
T1 construct: purchased Carna 08-182
T1 sequence (P42680 1-631): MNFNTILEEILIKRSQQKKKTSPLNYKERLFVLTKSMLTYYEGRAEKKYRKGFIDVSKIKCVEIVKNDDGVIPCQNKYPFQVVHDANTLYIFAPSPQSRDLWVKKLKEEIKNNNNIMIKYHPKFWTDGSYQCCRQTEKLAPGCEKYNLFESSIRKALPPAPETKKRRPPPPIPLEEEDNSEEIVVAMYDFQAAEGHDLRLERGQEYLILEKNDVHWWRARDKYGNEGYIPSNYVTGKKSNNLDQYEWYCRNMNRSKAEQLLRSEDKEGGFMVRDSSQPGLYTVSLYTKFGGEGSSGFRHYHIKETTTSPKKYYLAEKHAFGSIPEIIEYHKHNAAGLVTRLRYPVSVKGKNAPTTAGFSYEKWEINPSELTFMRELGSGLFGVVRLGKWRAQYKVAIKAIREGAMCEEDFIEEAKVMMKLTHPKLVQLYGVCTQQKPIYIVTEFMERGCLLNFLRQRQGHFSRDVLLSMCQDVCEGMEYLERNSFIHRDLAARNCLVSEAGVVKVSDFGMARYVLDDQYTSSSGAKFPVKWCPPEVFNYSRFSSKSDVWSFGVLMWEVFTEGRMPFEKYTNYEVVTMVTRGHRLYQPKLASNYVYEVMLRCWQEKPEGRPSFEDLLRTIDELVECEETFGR
Summary of the method: (§1)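 IC50 was fitted (four-parameter logistic) from % inhibition computed from the 665/620 nm TR-FRET ratio, with no-kinase wells as blank and DMSO-plus-kinase wells as positive control. Compound, substrate/ATP and enzyme were combined on ice and reacted at room temperature. Biotin-substrate phosphorylation was detected with cryptate antibody/XL665 after 1 h.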

ITK = target: T2, ITK (Homo sapiens, UniProt Q08881); experiment: as above
T2 construct: purchased Carna 08-181
T2 sequence (Q08881 1-620): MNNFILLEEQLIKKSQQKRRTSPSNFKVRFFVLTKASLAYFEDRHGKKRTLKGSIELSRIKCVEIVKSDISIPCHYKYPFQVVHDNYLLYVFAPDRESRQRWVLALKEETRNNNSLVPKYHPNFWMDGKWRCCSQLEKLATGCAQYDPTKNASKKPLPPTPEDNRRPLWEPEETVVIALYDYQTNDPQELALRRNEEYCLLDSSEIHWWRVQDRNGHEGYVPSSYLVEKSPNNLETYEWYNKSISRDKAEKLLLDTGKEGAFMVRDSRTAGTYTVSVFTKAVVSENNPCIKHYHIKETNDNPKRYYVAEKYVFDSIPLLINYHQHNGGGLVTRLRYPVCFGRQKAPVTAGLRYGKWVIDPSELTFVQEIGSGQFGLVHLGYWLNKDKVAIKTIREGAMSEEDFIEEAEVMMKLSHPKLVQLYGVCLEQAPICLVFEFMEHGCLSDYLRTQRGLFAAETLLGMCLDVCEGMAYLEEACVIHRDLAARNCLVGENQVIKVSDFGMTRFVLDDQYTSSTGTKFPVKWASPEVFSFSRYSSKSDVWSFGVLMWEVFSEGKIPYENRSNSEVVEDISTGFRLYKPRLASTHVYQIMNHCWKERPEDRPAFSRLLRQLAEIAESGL
Summary of the method: as §1

EGFR = target: T3, EGFR (Homo sapiens, UniProt P00533); experiment: as above
T3 construct: purchased Carna 08-115
T3 sequence (P00533 669-1210 limits assumed): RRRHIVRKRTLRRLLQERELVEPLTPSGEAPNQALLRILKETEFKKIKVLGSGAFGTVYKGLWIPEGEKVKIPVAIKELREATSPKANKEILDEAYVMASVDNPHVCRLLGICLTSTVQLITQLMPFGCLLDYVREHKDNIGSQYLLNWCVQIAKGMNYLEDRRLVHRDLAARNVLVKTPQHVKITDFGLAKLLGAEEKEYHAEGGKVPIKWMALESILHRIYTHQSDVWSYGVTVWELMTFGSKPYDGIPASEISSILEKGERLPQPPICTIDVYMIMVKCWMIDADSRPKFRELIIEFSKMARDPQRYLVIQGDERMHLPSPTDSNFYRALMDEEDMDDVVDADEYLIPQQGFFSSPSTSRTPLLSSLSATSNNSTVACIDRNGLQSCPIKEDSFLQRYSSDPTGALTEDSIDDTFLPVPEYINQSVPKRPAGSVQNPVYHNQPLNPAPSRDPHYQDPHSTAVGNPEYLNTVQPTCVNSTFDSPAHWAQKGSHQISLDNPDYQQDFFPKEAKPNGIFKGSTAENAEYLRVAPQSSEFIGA
Summary of the method: as §1

BTK kinase = target: T4, BTK kinase (Homo sapiens, UniProt Q06187); experiment: Kinase activity inhibition assay (HTRF TK Kit)
T4 construct: purchased Invitrogen PV3587
T4 sequence (Q06187 whole entry): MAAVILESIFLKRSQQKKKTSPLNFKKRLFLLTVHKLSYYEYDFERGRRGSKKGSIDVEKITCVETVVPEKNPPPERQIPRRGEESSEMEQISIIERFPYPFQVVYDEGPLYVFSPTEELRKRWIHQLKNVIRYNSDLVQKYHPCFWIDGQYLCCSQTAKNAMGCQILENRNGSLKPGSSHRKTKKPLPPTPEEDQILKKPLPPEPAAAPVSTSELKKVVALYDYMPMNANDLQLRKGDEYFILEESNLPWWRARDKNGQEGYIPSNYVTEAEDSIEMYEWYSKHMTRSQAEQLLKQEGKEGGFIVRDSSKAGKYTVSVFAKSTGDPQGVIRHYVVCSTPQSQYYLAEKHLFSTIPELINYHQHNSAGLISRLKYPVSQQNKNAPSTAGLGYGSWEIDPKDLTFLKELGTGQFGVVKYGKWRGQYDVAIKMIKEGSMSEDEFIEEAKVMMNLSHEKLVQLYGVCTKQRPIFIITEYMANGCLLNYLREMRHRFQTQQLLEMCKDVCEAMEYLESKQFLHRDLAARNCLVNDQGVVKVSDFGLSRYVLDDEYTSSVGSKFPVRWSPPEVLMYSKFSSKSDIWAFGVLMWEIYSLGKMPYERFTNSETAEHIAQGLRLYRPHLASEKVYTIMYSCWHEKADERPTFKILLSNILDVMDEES
Summary of the method: as §1

BTK C481S = target: T5, BTK C481S (Homo sapiens, UniProt Q06187, C481S); experiment: Kinase activity inhibition assay (HTRF TK Kit)
T5 construct: purchased Carna 08-547
T5 sequence (Q06187 whole entry C481S): as the sequence (Q06187 whole entry) above, with C481S counted along it
Summary of the method: as §1

BTK T474I = target: T6, BTK T474I (Homo sapiens, UniProt Q06187, T474I); experiment: Kinase activity inhibition assay (HTRF TK Kit)
T6 construct: purchased SignalChem B10-12HH
T6 sequence (Q06187 whole entry T474I): as the sequence (Q06187 whole entry) above, with T474I counted along it
Summary of the method: as §1

SMILES	IC50 (TEC) [nM]	IC50 (ITK) [nM]	IC50 (EGFR) [nM]	IC50 (BTK kinase) [nM]	IC50 (BTK C481S) [nM]	IC50 (BTK T474I) [nM]
COc1ccc(F)cc1C(=O)NCc1ccc(-c2ncc(-c3ccc(C(=O)N4C[C@@H](C)O[C@H](C)C4)cn3)c3[nH]nc(N)c23)cc1 [Example 54, N-(4-(3-amino-7-(5-((2R,6R)-2,6-dimethylmoroholine-4-carbonyl)pyridin-2-yl)-1H-pyrazolo[4,3-c]pyridin-4-yl)benzyl)-5-fluoro-2-methoxybenzamide]	5 to 50	50 to 500	50 to 500	1 to 5	1 to 5	50 to 500
COc1ccc(F)cc1C(=O)NCc1ccc(-c2ncc(-c3ccc(P(C)(C)=O)cn3)c3[nH]nc(N)c23)cc1 [Example 56, N-(4-(3-amino-7-(5-(dimethylphosphoryl)pyridin-2-yl)-1H-pyrazolo[4,3-c]pyridin-4-yl)benzyl)-5-fluoro-2-methoxybenzamide]	5 to 50	50 to 500	50 to 500	1 to 5	1 to 5	5 to 50
COc1ccc(F)cc1C(=O)NCc1ccc(-c2ncc(-c3nc4cnccn4n3)c3[nH]nc(N)c23)cc1 [Example 57, N-(4-(7-([1,2,4]triazolo[1,5-a]pyrazin-2-yl)-3-amino-1H-pyrazolo[4,3-c]pyridin-4-yl)benzyl)-5-fluoro-2-methoxybenzamide]	50 to 500	> 500	50 to 500	1 to 5	≤ 1	50 to 500
COc1ccc(F)cc1C(=O)NCc1ccc(-c2ncc(-c3nc4ccccn4n3)c3[nH]nc(N)c23)cc1 [Example 58, N-(4-(7-([1,2,4]triazolo[1,5-a]pyridin-2-yl)-3-amino-1H-pyrazolo[4,3-c]pyridin-4-yl)benzyl)-5-fluoro-2-methoxybenzamide]	5 to 50	> 500	50 to 500	1 to 5	1 to 5	5 to 50
COCCOc1ccc(-c2cnc(-c3ccc(CNC(=O)c4cc(F)ccc4OC)cc3)c3c(N)n[nH]c23)nc1 [Example 59, N-(4-(3-amino-7-(5-(2-methoxyethoxy)pyridin-2-yl)-1H-pyrazolo[4,3-c]pyridin-4-yl)benzyl)-5-fluoro-2-methoxybenzamide]	5 to 50	50 to 500	5 to 50	≤ 1	≤ 1	5 to 50
COc1ccc(F)cc1C(=O)NCc1ccc(-c2ncc(-c3ccc(OCCN(C)C)cn3)c3[nH]nc(N)c23)cc1 [Example 60, N-(4-(3-amino-7-(5-(2-(dimethylamino)ethoxy)pyridin-2-yl)-1H-pyrazolo[4,3-c]pyridin-4-yl)benzyl)-5-fluoro-2-methoxybenzamide]	5 to 50	50 to 500	5 to 50	≤ 1	≤ 1	5 to 50
COc1ccc(F)cc1C(=O)NCc1ccc(-c2ncc(-c3ccc(OCCN4CCOCC4)cn3)c3[nH]nc(N)c23)cc1 [Example 61, N-(4-(3-amino-7-(5-(2-morpholinoethoxy)pyridin-2-yl)-1H-pyrazolo[4,3-c]pyridin-4-yl)benzyl)-5-fluoro-2-methoxybenzamide]	5 to 50	50 to 500	5 to 50	≤ 1	≤ 1	5 to 50
COc1ccc(F)cc1C(=O)NCc1ccc(-c2ncc(-c3ccc(OCCN4CCCC4)cn3)c3[nH]nc(N)c23)cc1 [Example 62, N-(4-(3-amino-7-(5-(2-(pyrrolidin-1-yl)ethoxy)pyridin-2-yl)-1H-pyrazolo[4,3-c]pyridin-4-yl)benzyl)-5-fluoro-2-methoxybenzamide]	50 to 500	50 to 500	5 to 50	1 to 5	1 to 5	5 to 50
COc1ccc(F)cc1C(=O)NCc1ccc(-c2ncc(-c3ccc(C(C)(C)O)cn3)c3[nH]nc(N)c23)cc1 [Example 65, N-(4-(3-amino-7-(5-(2-hydroxypropan-2-yl)pyridin-2-yl)-1H-pyrazolo[4,3-c]pyridin-4-yl)benzyl)-5-fluoro-2-methoxybenzamide]	1 to 5	50 to 500	5 to 50	1 to 5	1 to 5	1 to 5
COc1ccc(F)cc1C(=O)NCc1ccc(-c2ncc(-c3ccc(CN4CCCCC4)cn3)c3[nH]nc(N)c23)cc1 [Example 66, N-(4-(3-amino-7-(5-(piperidin-1-ylmethyl)pyridin-2-yl)-1H-pyrazolo[4,3-c]pyridin-4-yl)benzyl)-5-fluoro-2-methoxybenzamide]	5 to 50	50 to 500	5 to 50	≤ 1	≤ 1	5 to 50
COc1ccc(F)cc1C(=O)NCc1ccc(-c2ncc(-c3ccc(CN4CCOCC4)cn3)c3[nH]nc(N)c23)cc1 [Example 67, N-(4-(3-amino-7-(5-(morpholinomethyl)pyridin-2-yl)-1H-pyrazolo[4,3-c]pyridin-4-yl)benzyl)-5-fluoro-2-methoxybenzamide]	5 to 50	50 to 500	5 to 50	≤ 1	≤ 1	50 to 500
COc1ccc(F)cc1C(=O)NCc1ccc(-c2ncc(-c3ccc(CN4CCN(C)CC4)cn3)c3[nH]nc(N)c23)cc1 [Example 68, N-(4-(3-amino-7-(5-((4-methylpiperazin-1-yl)methyl)pyridin-2-yl)-1H-pyrazolo[4,3-c]pyridin-4-yl)benzyl)-5-fluoro-2-methoxybenzamide]	5 to 50	50 to 500	5 to 50	1 to 5	1 to 5	5 to 50
COc1ccc(F)cc1C(=O)NCc1ccc(-c2ncc(-c3cc4ccccn4n3)c3[nH]nc(N)c23)cc1 [Example 69, N-(4-(3-amino-7-(pyrazolo[1,5-a]pyridin-2-yl)-1H-pyrazolo[4,3-c]pyridin-4-yl)benzyl)-5-fluoro-2-methoxybenzamide]	1 to 5	50 to 500	5 to 50	≤ 1	≤ 1	5 to 50
COc1ccc(F)cc1C(=O)NCc1ccc(-c2ncc(-c3cnn4cccnc34)c3[nH]nc(N)c23)cc1 [Example 70, N-(4-(3-amino-7-(pyrazolo[1,5-a]pyrimidin-3-yl)-1H-pyrazolo[4,3-c]pyridin-4-yl)benzyl)-5-fluoro-2-methoxybenzamide]	5 to 50	> 500	50 to 500	1 to 5	1 to 5	50 to 500
COc1ccc(F)cc1C(=O)NCc1ccc(-c2ncc(-c3cc4n(n3)CCN(C)C4)c3[nH]nc(N)c23)cc1 [Example 71, N-(4-(3-amino-7-(5-methyl-4,5,6,7-tetrahydropyrazolo[1,5-a]pyrazin-2-yl)-1H-pyrazolo[4,3-c]pyridin-4-yl)benzyl)-5-fluoro-2-methoxybenzamide]	5 to 50	50 to 500	5 to 50	1 to 5	≤ 1	5 to 50
CCN1CCn2nc(-c3cnc(-c4ccc(CNC(=O)c5cc(F)ccc5OC)cc4)c4c(N)n[nH]c34)cc2C1 [Example 72, N-(4-(3-amino-7-(5-ethyl-4,5,6,7-tetrahydropyrazolo[1,5-a]pyrazin-2-yl)-1H-pyrazolo[4,3-c]pyridin-4-yl)benzyl)-5-fluoro-2-methoxybenzamide]	5 to 50	50 to 500	5 to 50	≤ 1	≤ 1	5 to 50
